Source: patent US20210244028A1, “TREATMENT FOR REMOVING ECTOPARASITES FROM FISH” (priority 2018, published 2021)
Values joined by “and” are separate entries in the source; they are usually repeats but may differ in a detail not shown here. Equal values may be shown once.

How the values were obtained:
[1] = tested on: azamethiphos- and deltamethrin-resistant sea lice; assay: In vitro bath exposure of isolated sea lice (Example 6); conditions: 30 minutes exposure, registered approx. 20 h after end of exposure
Protocol: A trial was performed to ensure there was no cross-resistance between azamethiphos- and deltamethrin-resistant sea lice and neonicotinoids. Both pre-adult and adult stages (mobile stages) of both sexes were used, and they were equally distributed among groups. The sea lice were exposed to imidacloprid for 60 minutes, azamethiphos for 60 minutes and deltamethrin for 30 minutes in one litre baths at a range of concentrations (Tables 6, 7 and 8). The sea lice were transferred to clean aerated seawater after treatment. The temperature of the seawater during the experiment was 12° C., but during exposure the temperature raised to approx. 14° C. in regimes exposed for 60 min. (imidacloprid and azamethiphos) and to 13° C. for the regime exposed in 30 minutes (deltamethrin).
The numbers of live and immobilised (including killed) lice in each regime were registered approximately 20 h after end of exposure. Each louse was individually investigated.

Salmon lice = assay: Bath treatment of lice-infected Atlantic salmon, percent lice removed (Example 7); format: in vivo; conditions: 0.2 μl/l, 30 minutes, duplicate, 3 fish per test
Protocol: To determine the concentration- and time-dependence of imidacloprid treatment in vivo, Atlantic salmon (average of 320.9 g) were challenged with imidacloprid in seawater ([…] salinity) at 12° C. The water level in the tank was lowered and aeration was employed during administration of the active. The salmon louse copepodid culture was counted and adjusted to obtain a target level of around 40 copepodids per fish in the challenge tank at each challenge time point.
Salmon lice on the fish were counted using standard methods. Only lice on the fish's outer surface, not including gills and oral/buccal cavities, were investigated.
Numbers of dissociated lice in tank water or attached to the tank walls were recorded. Lice in the tank water were collected and assessed for ability to attach by suction to a smooth plastic surface immediately after treatment and again after 30-60 minutes (to assess possible revival). […]
To terminate the treatment, the inner compartment with treated fish was lifted to the surface and drained, then fish were transferred directly and without water to a second basin with a lethal overdose of anaesthetic and left until dead. All lice remaining on these fish and lice that fell off in the anaesthetic bath were recorded. […]

For `CC1(C)[C@H](C(=O)O[C@H](C#N)c2cccc(Oc3ccccc3)c2)[C@@H]1C=C(Br)Br` [deltamethrin], the “% effect” value ([1]; 5 ppm) was 0%, the Immobilised ([1]; 5 ppm) was 0 and the Live ([1]; 5 ppm) was 10. For the same molecule, the Live ([1]; 10 ppm) was 9 and 10, the “% effect” value ([1]; 15 ppm) was 20% and 10% and the Immobilised ([1]; 15 ppm) was 2 and 1. For the same molecule, the Live ([1]; 15 ppm) was 8 and 9, the “% effect” value ([1]; 20 ppm) was 20% and 10% and the Immobilised ([1]; 20 ppm) was 2 and 1. The Live ([1]; 20 ppm) was 8 and 9, the Immobilised ([1]; 30 ppm) was 1 and 2 and the Live ([1]; 30 ppm) was 10 and 8. For the same molecule, the “% Removal” value (Salmon lice) was 0^37%.
